How the values were obtained:
KCC2-S940A = target: T1, KCC2-S940A (Homo sapiens, UniProt Q9H2X9, S963A); assay: Tl+ flux assay, HEK-293 cells expressing KCC2-S940A; type: cell-based
T1 construct: expressed in transfected cells; host or cells: HEK-293
T1 sequence (Q9H2X9 1-1116 isoform Q9H2X9-2 S940A): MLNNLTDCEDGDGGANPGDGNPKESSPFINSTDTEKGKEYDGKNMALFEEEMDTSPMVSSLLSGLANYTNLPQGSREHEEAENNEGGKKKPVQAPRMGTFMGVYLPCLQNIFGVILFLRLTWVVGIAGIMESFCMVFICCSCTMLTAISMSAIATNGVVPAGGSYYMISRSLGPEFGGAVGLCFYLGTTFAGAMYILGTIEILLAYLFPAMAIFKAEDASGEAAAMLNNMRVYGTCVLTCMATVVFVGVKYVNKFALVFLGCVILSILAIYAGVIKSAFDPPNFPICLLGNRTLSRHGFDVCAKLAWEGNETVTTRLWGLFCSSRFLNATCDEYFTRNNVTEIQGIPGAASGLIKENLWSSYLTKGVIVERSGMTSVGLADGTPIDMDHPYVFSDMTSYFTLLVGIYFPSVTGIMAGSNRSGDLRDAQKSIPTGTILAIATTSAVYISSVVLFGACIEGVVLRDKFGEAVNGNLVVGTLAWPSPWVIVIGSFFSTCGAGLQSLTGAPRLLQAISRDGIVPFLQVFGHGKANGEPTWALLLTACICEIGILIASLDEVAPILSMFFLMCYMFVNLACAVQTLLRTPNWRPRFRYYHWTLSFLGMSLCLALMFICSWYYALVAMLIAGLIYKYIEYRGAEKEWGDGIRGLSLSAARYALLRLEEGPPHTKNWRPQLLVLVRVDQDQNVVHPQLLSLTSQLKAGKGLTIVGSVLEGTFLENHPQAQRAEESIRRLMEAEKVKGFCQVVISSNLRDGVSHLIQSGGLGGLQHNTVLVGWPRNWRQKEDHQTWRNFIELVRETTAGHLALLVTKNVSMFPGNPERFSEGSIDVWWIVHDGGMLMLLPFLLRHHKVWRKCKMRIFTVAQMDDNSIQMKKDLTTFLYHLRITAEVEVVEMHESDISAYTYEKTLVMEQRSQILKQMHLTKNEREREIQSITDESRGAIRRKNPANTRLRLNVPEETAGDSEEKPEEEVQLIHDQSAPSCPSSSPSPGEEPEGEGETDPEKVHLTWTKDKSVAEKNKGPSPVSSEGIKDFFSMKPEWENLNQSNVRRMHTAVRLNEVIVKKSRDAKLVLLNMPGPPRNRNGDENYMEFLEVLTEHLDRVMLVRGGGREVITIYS
Procedure: (§1) FLIPR TI Flux assay. HEK-293 cells were washed with HBSS, and then incubated with loading buffer containing TI sensitive fluorescent dye (https://www.moleculardevices.com), 20 μM bumetanide 20 μM ouabain and 2.5 mM probenecid for 1 h at room temperature (RT) under control conditions or with drugs in the dark using a FlexStation 3 microplate reader (Molecular Devices) and imaged […] for 30 min. Stimulus buffer was added containing 5 mM K^+/0.5 mM Tl^+ and cells were imaged every 1.5 over a 190 second time course The initial rate Tl^+ uptake (Relative Fluorescence Units (RFU) per second) was determined following addition of the stimulus buffer as outlined previously (Conway et al., 2017, supra) (Lee et al., 2022, supra).
(§2) Compared to KCC2, effects on KCC3, KCC4, and NKCC1 were only seen at concentrations more than 35-fold that of KCC2 (>100 μM) (FIG. 1G).

KCC3 = target: T2, KCC3 (Homo sapiens, UniProt Q9UHW9); assay: Tl+ flux assay, HEK-293 cells expressing KCC3; type: cell-based; conditions: read-out: concentration at which effects on KCC3 were seen
T2 construct: expressed in transfected cells; host or cells: HEK-293
T2 sequence (Q9UHW9 1-1150): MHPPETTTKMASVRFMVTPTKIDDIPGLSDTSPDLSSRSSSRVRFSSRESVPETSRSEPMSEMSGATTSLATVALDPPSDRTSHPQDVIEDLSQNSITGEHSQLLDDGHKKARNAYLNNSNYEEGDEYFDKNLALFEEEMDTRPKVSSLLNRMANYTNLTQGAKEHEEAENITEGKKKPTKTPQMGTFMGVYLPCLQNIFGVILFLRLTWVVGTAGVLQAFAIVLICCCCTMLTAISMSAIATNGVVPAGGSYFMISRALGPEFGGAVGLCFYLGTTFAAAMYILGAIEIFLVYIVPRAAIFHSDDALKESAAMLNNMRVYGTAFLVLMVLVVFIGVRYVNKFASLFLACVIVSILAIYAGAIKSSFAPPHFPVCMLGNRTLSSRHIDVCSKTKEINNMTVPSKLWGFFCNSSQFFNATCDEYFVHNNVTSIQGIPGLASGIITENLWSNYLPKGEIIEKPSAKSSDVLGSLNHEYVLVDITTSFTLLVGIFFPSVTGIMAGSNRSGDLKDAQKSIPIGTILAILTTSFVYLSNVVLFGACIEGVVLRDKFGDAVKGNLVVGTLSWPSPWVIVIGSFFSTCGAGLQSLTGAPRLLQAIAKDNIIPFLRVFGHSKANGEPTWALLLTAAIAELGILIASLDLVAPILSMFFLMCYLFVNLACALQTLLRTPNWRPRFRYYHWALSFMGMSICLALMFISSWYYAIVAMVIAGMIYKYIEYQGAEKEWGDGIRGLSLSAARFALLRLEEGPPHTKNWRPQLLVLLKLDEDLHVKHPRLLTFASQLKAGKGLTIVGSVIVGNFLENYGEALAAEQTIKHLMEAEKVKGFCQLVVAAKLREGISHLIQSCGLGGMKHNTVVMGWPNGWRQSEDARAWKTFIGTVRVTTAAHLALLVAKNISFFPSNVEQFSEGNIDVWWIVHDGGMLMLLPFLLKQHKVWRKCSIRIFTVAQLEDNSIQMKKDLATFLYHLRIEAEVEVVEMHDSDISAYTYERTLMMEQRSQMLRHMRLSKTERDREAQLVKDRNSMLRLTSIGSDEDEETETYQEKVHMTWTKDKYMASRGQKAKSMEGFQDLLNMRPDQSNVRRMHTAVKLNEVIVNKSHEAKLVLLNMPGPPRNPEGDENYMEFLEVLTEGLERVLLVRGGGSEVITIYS
Procedure: as §1, §2

[1] = test system: panel of 144 protein kinases; assay: SelectScreen panel of 144 protein kinases; type: biochemical; conditions: includes PKC isoforms, OSR1, SPAK (STK39), WNK
Procedure: Aliquots of HEK-293 cells expressing KCC2 were exposed to 30 μM SSA, heated from 37-55° C. The remaining level of soluble native KCC2 at each temperature was measured by immunoblotting and normalized to the level seen at 37° C. which was given a value of 1. […] This panel included protein kinase C isoforms, OSR1, SPAK (STK39) and with-no-lysine kinases (WNK), all of which phosphorylate KCC2 on multiple residues to indirectly modify its activity (Kahle et al., 2013, supra; Smalley et al., 2020, supra).

SMILES: C[C@@H]1CN(c2nc3c(c(Nc4ccc(C5CCCCC5)cc4)n2)COC3)CCO1 [Compound A, (R)—N-(4-cyclohexylphenyl)-2-(2-methylmorpholino)-5,7-dihydrofuro[3,4-d]pyrimidin-4-amine]
- activity of KCC2-S940A construct (KCC2-S940A): increased the activity
- EC50 (KCC3): > 100 µM
- activity of a panel of 144 protein kinases [1]: did not modify the activity
